Results: patent US20230313318A1, “MICR[…] METHOD OF USE THEREOF” (priority 2022, published 2023)
Where “and” joins values, the source holds several entries; their conditions need not be identical. Identical values can stand only once.

Test system: D. immitis JYD-34 (macrocyclic lactone resistant isolate)
Parameters: species or system Dirofilaria immitis
Conditions: in vivo

Milbemycin oxime [MBO] was tested, and the “JYD-34 heartworms among recovered worms, all seven dogs in Group 4” value was 100%, the “Number of JYD-34 Worms” value was 18 and 15 and 21 and 22 and 14 and 20 and the “Percentage of JYD-34 Worms” value (po) was 100%.
